# Measurements reported in PubChem BioAssay (NCI).
# Where “and” joins values, the source holds several entries; their conditions need not be identical. Equal entries are not always repeated.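 48-hour exposure; five concentrations; linearly interpolated endpoints. GI50: concentration for 50% inhibition of growth. At the TGI there is no net growth.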 Where a SMILES comes first, the peptide text is derived from it. [ ]: non-standard residue; d: D form. The star is where a group is joined. NMeF = CN[CH](Cc1ccccc1)C(=O)O; NMeV = CN[CH](C(=O)O)C(C)C; Boc = CC(C)(C)OC(=O)*
# Legend:
# Assay in all cases: growth of human tumour cells (NCI), 48 h
# [1] = tested on: NCI-H460 lung
# [2] = tested on: HCC-2998 colon
# [3] = tested on: U251 CNS
# [4] = tested on: HS 578T breast
# [5] = tested on: SK-MEL-5 melanoma
# [6] = tested on: MDA-MB-435
# [7] = tested on: K-562 leukemia
# [8] = tested on: CAKI-1 renal
# [9] = tested on: TK-10 renal
# [10] = tested on: HOP-92 NSCLC
# [11] = tested on: SK-MEL-2 melanoma
# [12] = tested on: SR leukemia
Compound,TGI [1],TGI [2],TGI [3],TGI [4],TGI [5],TGI [6],TGI [7],TGI [8],TGI [9],TGI [10],TGI [11],TGI [12],GI50 [7],GI50 [10]
COC[C@@H](C[C@H]1O[C@@](O)([C@H](O)[C@@H]2C[C@H](OC)[C@@H](O)CC/C=C(C)/C=C/[C@@H](O[C@@H]3O[C@@H](C)[C@H](OC)[C@@H](O)[C@@H]3O)[C@H](C)/C=C(C)/C=C(C)/C=C(\C)C(=O)O2)[C@H](C)[C@@H](O)[C@H]1C)O[C@H]1C[C@](C)(O)[C@@H](O[C@H]2C[C@@H](OC)[C@H](O)[C@@H](C)O2)C(C)O1 (stereo not given in full),> 100 µM,> 100 µM,> 100 µM,> 100 µM,> 100 µM,> 100 µM,> 46.7 µM,> 100 µM,> 100 µM,> 100 µM,> 100 µM,–,–,–
CCOc1cn(C2CC(O)C(CO)O2)c(=O)[nH]c1=O (stereo not given),> 100 µM,> 100 µM,> 100 µM,> 100 µM,> 100 µM,> 100 µM,–,> 100 µM,> 100 µM,> 100 µM,> 100 µM,–,–,–
O=c1[nH]nc(-c2ccccc2)c2[nH]c3c4ccccc4ccc3c12,> 100 µM,4.81 µM,> 100 µM,–,> 100 µM,0.673 µM,> 100 µM,–,–,> 100 µM,> 100 µM,> 100 µM,–,–
C=CCCN1CCc2c([nH]c3ccccc23)C1C(=O)O (stereo not given),> 100 µM,> 100 µM,> 100 µM,–,> 100 µM,–,> 100 µM,> 100 µM,> 100 µM,> 100 µM,> 100 µM,> 100 µM,–,–
OCC(O)COCn1nncc1Cn1ncc2c(SCc3ccccc3)ncnc21 (stereo not given),–,> 100 µM,> 100 µM,25.7 µM,> 100 µM,> 100 µM,–,> 100 µM,> 100 µM,–,> 100 µM,–,–,–
O=C1CSC(c2cccc(Oc3ccccc3)c2)N1c1ccc(Cl)cc1 (stereo not given),41.1 µM,–,> 100 µM,> 100 µM,25.2 µM,87.7 µM,69.9 µM,> 100 µM,71.9 µM,65.7 µM,40.2 µM,46.9 µM,–,–
Nc1nc(N)c2ncn(-c3ccc(Cl)cc3)c2n1,–,> 100 µM,> 100 µM,–,> 100 µM,> 100 µM,–,> 100 µM,> 100 µM,> 100 µM,> 100 µM,–,–,–
COc1cc(/C=C(\C#N)C(N)=O)cc(Br)c1O,> 100 µM,> 100 µM,> 100 µM,–,> 100 µM,–,> 100 µM,> 100 µM,–,93.3 µM and > 100 µM,> 100 µM,–,32.1 µM and 43.2 µM,21.8 µM and > 100 µM
CCOC(=O)CNc1c(OCc2ccccc2)c(=O)c1=O,–,> 100 µM,> 100 µM,> 100 µM,> 100 µM,> 100 µM,> 100 µM,–,> 100 µM,–,> 100 µM,> 100 µM,–,–
Oc1c(CN2CCOCC2)ccc2cccnc12,> 10 µM,> 10 µM,> 10 µM,> 10 µM,> 10 µM,> 10 µM,> 10 µM,> 10 µM,> 10 µM,> 10 µM,> 10 µM,–,–,–
CC1NC(=O)CC(c2ccccc2)N(N=O)C1c1ccccc1 (stereo not given),> 90.2 µM,> 100 µM,> 100 µM,–,> 100 µM,–,> 88.5 µM,> 100 µM,–,> 100 µM,> 85.9 µM,–,–,–
CCOCc1nc2c(OC)cc(-c3nc4ccc(N5CCN(C)CC5)cc4[nH]3)c(OC)c2[nH]1,65.1 µM,–,> 100 µM,> 100 µM,31.6 µM,45.8 µM,> 100 µM,81.9 µM,> 100 µM,> 100 µM,40.6 µM,59.7 µM,–,–
CCCCN1C(=O)N(c2ccc(OCC)cc2)C2N(CCCC)C1C(C)(C)C2(C)C (stereo not given),> 100 µM,> 100 µM,> 100 µM,75.2 µM,67.7 µM,97.3 µM,–,93.8 µM,60.2 µM,85.1 µM,> 100 µM,–,–,–
O=C(NI1OC(=O)c2ccccc21)c1ccc(Cl)cc1,> 100 µM,> 100 µM,> 100 µM,–,> 100 µM,> 100 µM,> 100 µM,> 100 µM,> 100 µM,> 100 µM,> 100 µM,–,–,–
COC1=C(OC)C(=O)C(Cc2c(C)nc3sc(C)cn23)=C(C)C1=O,54.3 µM,92.9 µM,39.7 µM,67.1 µM,28.6 µM,33.6 µM,39 µM,37.4 µM,35.6 µM,–,34.7 µM,43.1 µM,–,–
CC(=O)OC(/C=C/c1ccccc1)=C(OC(C)C)/C1=C(\c2ccccc2)SCCCSC1=O,> 100 µM,> 100 µM,> 100 µM,> 100 µM,> 100 µM,> 100 µM,> 100 µM,> 100 µM,> 100 µM,> 100 µM,> 100 µM,–,–,–
COc1cccc(-c2ccc3c4c2O[C@H]2C(=O)CC[C@@]5(O)[C@@H](C3)N(CC3CC3)CC[C@]425)c1,50.7 µM,–,29.9 µM,29.1 µM,28 µM,25.6 µM,28.6 µM,31 µM,32.2 µM,38.4 µM,34.1 µM,37.8 µM,–,–
Cc1ccc(-c2c(C#N)c(-c3ccc(Cl)cc3)c(C#N)c(=O)n2NS(=O)(=O)c2ccc(C)cc2)cc1,> 100 µM,74.9 µM,> 100 µM,–,38.9 µM,> 100 µM,> 100 µM,> 100 µM,> 100 µM,> 100 µM,40.4 µM,–,–,–
COc1cc(Cn2c3c(c4cc(O)ccc42)Cc2ccccc2C3=O)cc(OC)c1,> 100 µM,–,> 100 µM,> 100 µM,> 100 µM,> 100 µM,> 100 µM,> 100 µM,> 100 µM,–,> 100 µM,53.3 µM,–,–
O=C1/C(=C/c2ccc([N+](=O)[O-])cc2)C(=O)N(c2ccccc2)C1c1ccccc1 (stereo not given),> 10 µM,> 10 µM,> 10 µM,> 10 µM,> 10 µM,> 10 µM,–,> 10 µM,> 10 µM,–,> 10 µM,> 10 µM,–,–

Compound,TGI [1],TGI [2],TGI [3],TGI [4],TGI [5],TGI [6],TGI [7],TGI [8],TGI [9],TGI [10],TGI [11],TGI [12],GI50 [7],GI50 [10]
NC(N)=NCCC[C@H](N)C(=O)NCC(=O)N[C@@H](CC(=O)O)c1ncc(NC(=O)C(F)(F)F)o1,> 25 µM,> 25 µM,> 25 µM,> 25 µM,> 25 µM,> 25 µM,> 25 µM,–,> 25 µM,–,> 25 µM,–,–,–
CC1OC(OC2C(O[C@H]3CC[C@@]4(C)C(=CC[C@H]5[C@@H]6C[C@@H]7O[C@]8(CC[C@@H](CO)CO8)[C@@H](C)[C@@H]7[C@@]6(C)CC[C@@H]54)C3)OC(CO)C(O)C2OC2OC(CO)C(O)C(O)C2O)C(O)C(O)C1O (stereo not given in full),3.18 µM,2.97 µM,3.22 µM,8.06 µM,3.11 µM,3.48 µM,3.17 µM,3.55 µM,3.08 µM,3.32 µM,3.7 µM,–,–,–
O=C(c1ccc(N=Cc2ccccc2O)cc1)c1ccc(N=Cc2ccccc2O)cc1,> 100 µM,> 100 µM,> 100 µM,–,> 100 µM,> 100 µM,> 100 µM,> 100 µM,> 100 µM,> 100 µM,> 100 µM,> 100 µM,–,–
CCOC(=O)CC1(C(=O)OCC)c2[nH]c3ccccc3c2CCN1Cc1ccccc1 (stereo not given),42.6 µM,28.9 µM,29 µM,–,34.6 µM,–,> 100 µM,99.2 µM,> 100 µM,32.2 µM,32.8 µM,52.6 µM,–,–
CC(C)C(NC(=O)OC(C)(C)C)C(=O)N(C)C(Cc1ccccc1)C(=O)N(C)C(C(=O)O)C(C)C (stereo not drawn) (Boc-Val-[NMeF]-[NMeV]-OH; configuration not given here),> 100 µM,> 100 µM,> 100 µM,–,> 100 µM,–,> 100 µM,–,> 100 µM,–,–,> 100 µM,–,–
O=Cc1c(C(=O)O)[nH]c(=O)[nH]c1=O,> 100 µM,–,> 100 µM,> 100 µM,> 100 µM,> 100 µM,> 100 µM,> 100 µM,> 100 µM,–,> 100 µM,–,–,–
CCOC(=O)c1cc(C(O)P2(=O)N(CC(C)(C)C)[C@@H]3CCCC[C@H]3N2CC(C)(C)C)cn1C(=O)OC(C)(C)C (stereo not given in full),–,29.7 µM,29.4 µM,36.1 µM,31.3 µM,27 µM,47 µM,51 µM,57.3 µM,–,32.8 µM,25.6 µM,–,–
Cc1cccc(N=NC(=O)NNc2cccc(C)c2C)c1C,> 100 µM,31.7 µM,> 100 µM,–,> 100 µM,64.9 µM,> 100 µM,> 100 µM,> 100 µM,–,46.7 µM,> 100 µM,–,–
COc1cc(/C=C2/C[C@H]3[C@@H]4CC=C5C[C@@H](O)CC[C@]5(C)[C@H]4CC[C@]3(C)NC2=O)cc(OC)c1OC,25.9 µM,25.8 µM,> 60.1 µM,–,> 47.5 µM,> 100 µM,> 100 µM,> 59.9 µM,> 82.1 µM,25 µM,> 62.9 µM,> 100 µM,–,–
O=C1C=C(C2=CC(=O)C(=O)c3ccccc32)c2ccccc2C1=O,–,–,> 100 µM,90.7 µM,8.17 µM,–,> 100 µM,47.8 µM,75.4 µM,39.3 µM,72.3 µM,–,–,–
C(=Nc1ccc(-c2nc3ccccc3[nH]2)cc1)c1cccs1,> 100 µM,–,> 100 µM,> 100 µM,> 100 µM,> 100 µM,> 100 µM,> 100 µM,> 100 µM,98.2 µM,> 100 µM,> 100 µM,–,–
C1=CC2SSSC2C1 (stereo not given),> 100 µM,> 100 µM,> 100 µM,–,> 100 µM,–,> 100 µM,–,> 100 µM,> 100 µM,> 100 µM,> 100 µM,–,–
COc1ccccc1/C=C1\SC(=S)N(/C=C2\C(=O)Oc3ccccc3C2=O)C1=O,–,–,> 100 µM,> 100 µM,51.4 µM,86.5 µM,> 100 µM,3.23 µM,95.9 µM,64.8 µM,59.4 µM,–,–,–
NC(N)=N/N=C/c1c[nH]c2ccccc12,> 100 µM,> 100 µM,> 100 µM,–,> 100 µM,–,> 100 µM,> 100 µM,> 100 µM,–,> 100 µM,> 100 µM,–,–
CCN(CC)CCNc1nc2ccc([N+](=O)[O-])cc2[n+]([O-])n1,56.8 µM,44.8 µM,77.2 µM,–,22.3 µM,29.5 µM,54.3 µM,> 100 µM,> 100 µM,> 100 µM,35.3 µM,> 100 µM,–,–
Cc1c(S(=O)(=O)/N=C(\NO)Nc2ccc(Cl)c(Cl)c2)sc2ccc(Cl)cc12,–,44.6 µM,49.9 µM,80.9 µM,31.5 µM,37.3 µM,71.4 µM,38.2 µM,34.4 µM,43.8 µM,38.6 µM,–,–,–
Cc1ccc(/C=C2\CCCc3ccccc3C2=O)cc1,32.5 µM,–,52.9 µM,30.8 µM,–,8.46 µM,53.7 µM,> 100 µM,> 100 µM,72.4 µM,9.07 µM,37.1 µM,–,–
O=P(Nc1ccc(Cl)cc1)(Oc1ccccc1)N(CCCl)CCCl (stereo not given),–,> 100 µM,> 100 µM,–,> 100 µM,–,> 100 µM,> 100 µM,> 100 µM,> 100 µM,> 100 µM,> 100 µM,–,–
NN/C(=N\S(=O)(=O)c1cc2ccccc2s1)Nc1ccc(Cl)cc1,39.6 µM,–,34.5 µM,–,31.8 µM,–,> 100 µM,39.4 µM,51.2 µM,39.6 µM,34.5 µM,73.9 µM,–,–
CC12C(=O)CC(CC1=O)C2(C)C,> 100 µM,–,–,> 100 µM,> 100 µM,–,> 100 µM,> 100 µM,> 100 µM,> 100 µM,> 100 µM,–,–,–
